In PubChem BioAssay (NCI):
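Growth conditions: 96-well plates. Treatment: test compound, 48 hours, 5 concentrations. Analysis: linear interpolation between bracketing concentrations; unreached endpoints set to highest concentration. GI50 is the concentration that inhibits growth by half. TGI is the concentration that stops growth completely.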

Legend:
Assay in all cases: DTP human tumour cell line panel, 48 h
786-0 renal = tested on: 786-0 renal
HCT-15 colon = tested on: HCT-15 colon
HT29 colon = tested on: HT29 colon
MCF7 breast = tested on: MCF7 breast
OVCAR-4 ovarian = tested on: OVCAR-4 ovarian
SK-MEL-2 melanoma = tested on: SK-MEL-2 melanoma
NCI-H226 lung = tested on: NCI-H226 lung
SN12C renal = tested on: SN12C renal

| SMILES | GI50 (786-0 renal) | TGI (786-0 renal) | GI50 (HCT-15 colon) | TGI (HCT-15 colon) | GI50 (HT29 colon) | TGI (HT29 colon) | GI50 (MCF7 breast) | TGI (MCF7 breast) | GI50 (OVCAR-4 ovarian) | TGI (OVCAR-4 ovarian) | GI50 (SK-MEL-2 melanoma) | TGI (SK-MEL-2 melanoma) | GI50 (NCI-H226 lung) | TGI (NCI-H226 lung) | GI50 (SN12C renal) | TGI (SN12C renal) |
| --- | --- | --- | --- | --- | --- | --- | --- | --- | --- | --- | --- | --- | --- | --- | --- | --- |
| CN1CCN(CCCOc2ccc3nc(Nc4ccc(C(F)(F)F)c(Cl)c4)ccc3c2)CC1 | 1.67 µM | 3.21 µM | 1.14 µM | 2.62 µM | 0.493 µM | 1.87 µM | 1.37 µM | 3.56 µM | 1.71 µM | 4.59 µM | 2.44 µM | 4.46 µM |  |  |  |  |
| Cc1nn(-c2ccccc2)c(C)c1/C=N/N1CCN(Cc2ccccc2)CC1 | 22.9 µM | 97.4 µM | 30.4 µM | > 100 µM | 43 µM | > 100 µM | 31 µM | > 100 µM |  |  | 60.7 µM | > 100 µM | 27.8 µM | 96.2 µM | > 100 µM | > 100 µM |
| O=C1CCCC(=O)C1C(=O)c1ccc(C(F)(F)F)cc1[N+](=O)[O-] | > 100 µM | > 100 µM | > 100 µM | > 100 µM | > 100 µM | > 100 µM | > 100 µM | > 100 µM | > 100 µM | > 100 µM |  |  | > 100 µM | > 100 µM | > 100 µM | > 100 µM |
| O=C1C(Cl)=C(Nc2ccccn2)C(=O)c2ccccc21 | 13.1 µM | 26.3 µM | 3.54 µM | > 100 µM | 26.2 µM | 62.5 µM | 1.96 µM | 4.12 µM |  |  | 3.05 µM | 6.66 µM | 1.92 µM | 5.49 µM | 2.33 µM | 5.17 µM |
| C=CCCC(O)c1ccc(CCCCCCCCCCC)o1 (centres undefined) | 16.3 µM | 30.5 µM | 17 µM | 31.5 µM | 16.1 µM | 33.5 µM | 20.3 µM | 50.9 µM |  |  | 17.6 µM | 37.1 µM | 17.7 µM | 33.1 µM | 15.6 µM | 29 µM |
| O=C(OC(CNc1c(C(=O)c2ccccc2)c(=O)n(Cc2ccccc2)c(=O)n1Cc1ccccc1)CN1CCCCC1)c1ccccc1 (centres undefined) | 14.9 µM | 29.4 µM | 13.5 µM | 26.3 µM |  |  | 20.7 µM | 39.4 µM |  |  | 19.1 µM | 34.8 µM | 67.2 µM | > 100 µM | 19.3 µM | 36.9 µM |
| CCCN(CCC)c1ccc(/C=N/NC(=O)c2cccnc2)cc1 | 32.5 µM | 94.8 µM | 19.8 µM | > 100 µM | 11 µM | 32 µM | 20.2 µM | > 100 µM | 35.4 µM | > 100 µM |  |  | 47.6 µM | > 100 µM | 40.4 µM | > 100 µM |
| COc1cc([N+](=O)[O-])c(OC)cc1-c1nc2n(c1/C(N)=N/C(=N)N)CCS2 | 25.1 µM | > 100 µM | > 100 µM | > 100 µM | > 100 µM | > 100 µM | > 100 µM | > 100 µM | 44 µM | > 100 µM |  |  | > 100 µM | > 100 µM | > 100 µM | > 100 µM |
| COc1cc(C2C(C(=O)OCc3ccccc3)=C(C)NC(C)=C2C(=O)OCc2ccccc2)cc(OC)c1OC | 1.46 µM | > 100 µM |  |  | 3.35 µM | > 100 µM | 2.66 µM | > 100 µM | 3.39 µM | > 100 µM |  |  | 2.41 µM | > 100 µM |  |  |
| N#C/C(=C\c1ccc([N+](=O)[O-])s1)c1nc2cc(Br)ccc2s1 | 2.68 µM | > 100 µM | 0.0707 µM | 0.264 µM | 1.92 µM | > 100 µM | 0.305 µM |  |  |  | 0.236 µM | 0.672 µM | 0.152 µM | 0.335 µM | 0.201 µM | 0.576 µM |
| CCc1cccc(CC)c1NC(=O)c1ccn2c1CCc1cnc(Nc3ccc(N4CCN(C)CC4)cc3OC)nc1-2 | 1.66 µM | 3.84 µM | 0.0413 µM | 2.55 µM | 1.26 µM | 9.36 µM | 1.12 µM | 7.55 µM | 3.77 µM | 18.1 µM |  |  | 14.7 µM | 45.2 µM | 2.13 µM | 13.9 µM |
| Cc1cn2c(/C=N/N=C(N)N)c(-c3cc(Cl)sc3Cl)nc2s1 | 0.887 µM | 1.83 µM | 1.84 µM | 8.55 µM | 1.72 µM | 12.1 µM | 0.777 µM | 2.04 µM |  |  | 1.98 µM | > 50 µM |  |  |  |  |
| Cc1csc(-c2ccc3c(c2)COC3(CCCN(C)C)c2ccc(F)cc2)c1 (centres undefined) | 1.8 µM | 3.39 µM | 1.85 µM | 3.51 µM |  |  | 1.7 µM | 3.38 µM | 1.67 µM | 3.11 µM | 1.96 µM | 3.95 µM | 1.92 µM | 3.76 µM | 1.79 µM | 3.4 µM |
